In brackets after ≈: the same amount, converted by molar mass. Where two headings read alike, the source gives them in different places.
Legend:
[1] = test system: quinolone resistant E. coli LZ3111; experiment: Antibacterial activity, MIC, quinolone resistant E. coli LZ3111; assay type: cell-based, Escherichia coli; conditions: Escherichia coli, read-out: MIC, LZ3111
Text: (§1) The antibacterial activity from a microbroth dilution method may be presented as the minimum inhibitory concentration (MIC in […]). The MIC value is the lowest concentration of a drug which prevents macroscopically visible bacterial growth under test conditions.
Mutations in these regions are known to confer a high level resistance to the quinolone class of antibiotics.

[2] = test system: control Gram-negative E. coli 25922 strain; experiment: Antibacterial activity, microbroth dilution MIC, E. coli 25922; assay type: cell-based, Escherichia coli; conditions: Escherichia coli; E. coli 25922, microbroth dilution; read-out: MIC, 25922
[3] = test system: super sensitive Gram-negative Escherichia coli (E. coli) BAS849; experiment: Antibacterial activity, microbroth dilution MIC, E. coli BAS849; assay type: cell-based; conditions: Escherichia coli, read-out: MIC, BAS849
[4] = test system: Moraxella catarrhalis (M. catarrhalis) 25238; experiment: Antibacterial activity, MIC, M. catarrhalis 25238; assay type: cell-based; conditions: Moraxella catarrhalis, M. catarrhalis 25238; read-out: MIC 25238
[5] = test system: E. coli ELZ4000 (MDR clinical isolate); experiment: Antibacterial activity, MIC, MDR E. coli ELZ4000; assay type: cell-based, Escherichia coli; conditions: Escherichia coli; E. coli ELZ4000, MDR clinical isolate; read-out: MIC ELZ4000
[6] = test system: Neisseria meningitidis (N. meningitidis) 13090; experiment: Antibacterial activity, MIC, N. meningitidis 13090; assay type: cell-based; conditions: Neisseria meningitidis; N. meningitidis 13090; read-out: MIC 13090
[7] = test system: E. coli ELZ4251 (MDR clinical isolate); experiment: Antibacterial activity, MIC, MDR E. coli ELZ4251; assay type: cell-based, Escherichia coli; conditions: Escherichia coli, E. coli ELZ4251, MDR clinical isolate; read-out: MIC ELZ4251
[8] = test system: Gram-positive Staphylococcus aureus (S. aureus) 29213; experiment: Antibacterial activity, microbroth dilution MIC, S. aureus 29213; assay type: cell-based; conditions: Staphylococcus aureus; S. aureus 29213, microbroth dilution; read-out: MIC, 29213
[9] = test system: Haemophilus influenzae (H. influenzae) 49247; experiment: Antibacterial activity, MIC, H. influenzae 49247; assay type: cell-based; conditions: Haemophilus influenzae; H. influenzae 49247; read-out: MIC 49247
Text: as §1
Antibacterial activity of test compounds against the Gram-negative bacteria Haemophilus influenzae (H. influenzae) 49247, Moraxella catarrhalis (M. catarrhalis) 25238 and Neisseria meningitidis (N. meningitidis) 13090 is shown in Table 6.

[10] = test system: Pseudomonas aeruginosa (P. aeruginosa) 27853; experiment: Antibacterial activity, MIC, P. aeruginosa 27853; assay type: cell-based; conditions: Pseudomonas aeruginosa, P. aeruginosa 27853; read-out: MIC 27853
Text: as §1
Antibacterial activity of test compounds against the Gram-negative bacterium Pseudomonas aeruginosa (P. aeruginosa) 27853 is shown in Table 5.

[11] = E. coli BAS849, microbroth dilution

| Structure (SMILES) | MIC [1] [µg/mL] | MIC [2] [µg/mL] | MIC [3, 11] [µg/mL] | MIC [4] [µg/mL] | MIC [5] [µg/mL] | MIC [6] [µg/mL] | MIC [7] [µg/mL] | MIC [8] [µg/mL] | MIC [9] [µg/mL] | MIC [10] [µg/mL] | MIC [3] [µg/mL] |
| --- | --- | --- | --- | --- | --- | --- | --- | --- | --- | --- | --- |
| CCc1cc(C(=O)O)c(=O)[nH]c1-c1ccc(N)cc1 [Cpd 3, 6-(4-aminophenyl)-5-ethyl-2-oxo-1,2-dihydropyridine-3-carboxylic acid] | 12.5 to 150 (≈ 48.4 to 581 µM) | 3.5 to 12.5 (≈ 13.6 to 48.4 µM) | < 1 | < 1 | 12.5 to 150 (≈ 48.4 to 581 µM) | < 1 | 12.5 to 150 (≈ 48.4 to 581 µM) | 12.5 to 150 (≈ 48.4 to 581 µM) |  |  |  |
| CCc1cc(C(=O)O)c(=O)[nH]c1-c1ccc(N(C)CCOC2CCCCO2)cc1 (stereo not drawn) [Cpd 16, 5-ethyl-6-(4-{methyl[2-(tetrahydro-2H-pyran-2-yloxy)ethyl]amino}phenyl)-2-oxo-1,2-dihydropyridine-3-carboxylic acid] | 12.5 to 150 (≈ 31.2 to 375 µM) | 3.5 to 12.5 (≈ 8.74 to 31.2 µM) | < 1 | < 1 | 12.5 to 150 (≈ 31.2 to 375 µM) |  | 12.5 to 150 (≈ 31.2 to 375 µM) | 12.5 to 150 (≈ 31.2 to 375 µM) | < 1 |  |  |
| CCc1c(-c2ccc(N(C)CCO)cc2)[nH]c(=O)c(C(=O)O)c1O [Cpd 18, 5-ethyl-4-hydroxy-6-{4-[(2-hydroxyethyl)(methyl)amino]phenyl}-2-oxo-1,2-dihydropyridine-3-carboxylic acid] | 12.5 to 150 (≈ 37.6 to 451 µM) | 3.5 to 12.5 (≈ 10.5 to 37.6 µM) | < 1 | < 1 | 12.5 to 150 (≈ 37.6 to 451 µM) |  | 12.5 to 150 (≈ 37.6 to 451 µM) | 3.5 to 12.5 (≈ 10.5 to 37.6 µM) | < 1 |  |  |
| CCc1cc(C(=O)O)c(=O)[nH]c1-c1ccc(N2CCCC2)cc1F [Cpd 38, 5-ethyl-6-[2-fluoro-4-(pyrrolidin-1-yl)phenyl]-2-oxo-1,2-dihydropyridine-3-carboxylic acid] | 12.5 to 150 (≈ 37.8 to 454 µM) | 1 to 3.5 (≈ 3.03 to 10.6 µM) | < 1 | < 1 | 12.5 to 150 (≈ 37.8 to 454 µM) |  | 12.5 to 150 (≈ 37.8 to 454 µM) | 3.5 to 12.5 (≈ 10.6 to 37.8 µM) |  |  |  |
| CCc1cc(C(=O)O)c(=O)[nH]c1-c1ccc(N(C)C)cc1F [Cpd 53, 6-[4-(dimethylamino)-2-fluorophenyl]-5-ethyl-2-oxo-1,2-dihydropyridine-3-carboxylic acid] |  | 1 to 3.5 (≈ 3.29 to 11.5 µM) | < 1 | < 1 |  |  |  | 12.5 to 150 (≈ 41.1 to 493 µM) |  |  |  |
| CCc1cc(C(=O)O)c(=O)[nH]c1-c1ccc(N(C)c2ccccc2)cc1 [Cpd 158, 5-ethyl-6-{4-[methyl(phenyl)amino]phenyl}-2-oxo-1,2-dihydropyridine-3-carboxylic acid] | 12.5 to 150 (≈ 35.9 to 431 µM) | 3.5 to 12.5 (≈ 10 to 35.9 µM) | < 1 |  | 12.5 to 150 (≈ 35.9 to 431 µM) |  | 12.5 to 150 (≈ 35.9 to 431 µM) | 3.5 to 12.5 (≈ 10 to 35.9 µM) |  | 12.5 to 150 (≈ 35.9 to 431 µM) |  |
| CCc1cc(C(=O)O)c(=O)[nH]c1-c1ccc(N(C)CC)cc1 [Cpd 160, 5-ethyl-6-{4-[ethyl(methyl)amino]phenyl}-2-oxo-1,2-dihydropyridine-3-carboxylic acid] | 12.5 to 150 (≈ 41.6 to 499 µM) | 1 to 3.5 (≈ 3.33 to 11.7 µM) | < 1 | < 1 | 12.5 to 150 (≈ 41.6 to 499 µM) |  | 12.5 to 150 (≈ 41.6 to 499 µM) | 12.5 to 150 (≈ 41.6 to 499 µM) | < 1 |  |  |
| CCc1cc(C(=O)O)c(=O)[nH]c1-c1ccc(N2CCC(NCc3ccccc3)C2)cc1.Cl (stereo not drawn) [Cpd 174, 6-{4-[3-(benzylamino)pyrrolidin-1-yl]phenyl}-5-ethyl-2-oxo-1,2-dihydropyridine-3-carboxylic acid hydrochloride] | 12.5 to 150 | < 1 | < 1 |  | 12.5 to 150 |  | 12.5 to 150 | 12.5 to 150 |  | 12.5 to 150 |  |
| CCc1cc(C(=O)O)c(=O)[nH]c1-c1ccc(N2CCC(CNCc3ccccc3)C2)cc1.Cl (stereo not drawn) [Cpd 182, 6-(4-{3-[(benzylamino)methyl]pyrrolidin-1-yl}phenyl)-5-ethyl-2-oxo-1,2-dihydropyridine-3-carboxylic acid hydrochloride] | 12.5 to 150 | < 1 | < 1 | < 1 | 12.5 to 150 | < 1 | 12.5 to 150 | 12.5 to 150 |  |  |  |
| CCc1cc(C(=O)O)c(=O)[nH]c1-c1ccc(N2CCC(CN(C)C)C2)cc1.O=C(O)C(F)(F)F (stereo not drawn) [Cpd 185, 6-(4-{3-[(dimethylamino)methyl]pyrrolidin-1-yl}phenyl)-5-ethyl-2-oxo-1,2-dihydropyridine-3-carboxylic acid trifluoroacetate] | 12.5 to 150 | 3.5 to 12.5 |  | 1 to 3.5 | 12.5 to 150 | < 1 | 12.5 to 150 | 12.5 to 150 |  |  | < 1 |
| CCc1cc(C(=O)O)c(=O)[nH]c1-c1ccc(N2C[C@H]3CCN(C)[C@H]3C2)cc1.O=C(O)C(F)(F)F [Cpd 187, 5-ethyl-6-{4-[(3aR,6aR)-1-methylhexahydropyrrolo[3,4-b]pyrrol-5(1H)-yl]phenyl}-2-oxo-1,2-dihydropyridine-3-carboxylic acid trifluoroacetate] | 12.5 to 150 | 3.5 to 12.5 |  | 1 to 3.5 | 12.5 to 150 | < 1 | 12.5 to 150 | 12.5 to 150 |  |  | < 1 |
| CCc1cc(C(=O)O)c(=O)[nH]c1-c1ccc(N2C[C@H]3CC[C@@H](N)[C@H]3C2)cc1.O=C(O)C(F)(F)F [Cpd 202, 6-{4-[(3aR,4R,6aS)-4-aminohexahydrocyclopenta[c]pyrrol-2(1H)-yl]phenyl}-5-ethyl-2-oxo-1,2-dihydropyridine-3-carboxylic acid trifluoroacetate] | 12.5 to 150 | 12.5 to 150 |  |  | 12.5 to 150 |  | 12.5 to 150 | 12.5 to 150 |  | 12.5 to 150 | 1 to 3.5 |
| CCc1cc(C(=O)O)c(=O)[nH]c1-c1ccc(N2C[C@H]3CCC[C@H](N)[C@H]3C2)cc1.O=C(O)C(F)(F)F [Cpd 203, 6-{4-[(3aR,4S,7aS)-4-aminooctahydro-2H-isoindol-2-yl]phenyl}-5-ethyl-2-oxo-1,2-dihydropyridine-3-carboxylic acid trifluoroacetate] | 12.5 to 150 | 12.5 to 150 |  |  | 12.5 to 150 |  | 12.5 to 150 | 12.5 to 150 |  | 12.5 to 150 | 1 to 3.5 |
| CCc1cc(C(=O)O)c(=O)[nH]c1-c1ccc(N2C[C@H](CN)[C@@H](C)C2)cc1 [Cpd 216, 6-{4-[(3S,4R)-3-(aminomethyl)-4-methylpyrrolidin-1-yl]phenyl}-5-ethyl-2-oxo-1,2-dihydropyridine-3-carboxylic acid] | 12.5 to 150 (≈ 35.2 to 422 µM) | 12.5 to 150 (≈ 35.2 to 422 µM) | 12.5 to 150 (≈ 35.2 to 422 µM) |  | 12.5 to 150 (≈ 35.2 to 422 µM) |  | 12.5 to 150 (≈ 35.2 to 422 µM) | 12.5 to 150 (≈ 35.2 to 422 µM) |  | 12.5 to 150 (≈ 35.2 to 422 µM) |  |
| CCc1cc(C(=O)O)c(=O)[nH]c1-c1ccc(N2C[C@H]3CCC[C@H](N=[N+]=[N-])[C@H]3C2)cc1.O=C(O)C(F)(F)F [Cpd 244, 6-{4-[(3aR,4S,7aS)-4-azidooctahydro-2H-isoindol-2-yl]phenyl}-5-ethyl-2-oxo-1,2-dihydropyridine-3-carboxylic acid trifluoroacetate] | 12.5 to 150 | 12.5 to 150 |  |  | 12.5 to 150 |  | 12.5 to 150 | 1 to 3.5 |  | 12.5 to 150 | < 1 |
| CCc1c(-c2ccc(N3CC(N)C4(CC4)C3)cc2)[nH]c(=O)c(C(=O)O)c1O.O=C(O)C(F)(F)F (stereo not drawn) [Cpd 252, 6-[4-(7-amino-5-azaspiro[2.4]hept-5-yl)phenyl]-5-ethyl-4-hydroxy-2-oxo-1,2-dihydropyridine-3-carboxylic acid trifluoroacetate] | 3.5 to 12.5 | 1 to 3.5 |  |  | 12.5 to 150 |  | 12.5 to 150 | 12.5 to 150 |  | 12.5 to 150 | < 1 |
| CCc1c(-c2ccc(N3C[C@H]4CN(C)C[C@H]4C3)cc2)[nH]c(=O)c(C(=O)O)c1O.Cl [Cpd 273, 5-ethyl-4-hydroxy-6-{4-[(3aR,6aS)-5-methylhexahydropyrrolo[3,4-c]pyrrol-2(1H)-yl]phenyl}-2-oxo-1,2-dihydropyridine-3-carboxylic acid hydrochloride] | 12.5 to 150 | 1 to 3.5 | < 1 | 1 to 3.5 | 12.5 to 150 | 1 to 3.5 | 12.5 to 150 | 12.5 to 150 |  |  |  |
| CCc1c(-c2ccc(N3CCC(C)(CN)C3)cc2)[nH]c(=O)c(C(=O)O)c1O (stereo not drawn) [Cpd 290, 6-{4-[3-(aminomethyl)-3-methylpyrrolidin-1-yl]phenyl}-5-ethyl-4-hydroxy-2-oxo-1,2-dihydropyridine-3-carboxylic acid] | 3.5 to 12.5 (≈ 9.42 to 33.7 µM) | 1 to 3.5 (≈ 2.69 to 9.42 µM) | < 1 |  | 12.5 to 150 (≈ 33.7 to 404 µM) |  | 3.5 to 12.5 (≈ 9.42 to 33.7 µM) | 12.5 to 150 (≈ 33.7 to 404 µM) |  | 12.5 to 150 (≈ 33.7 to 404 µM) |  |
| CCc1cc(C(=O)O)c(=O)[nH]c1-c1ccc(N2CC=CC2)cc1 [Cpd 301, 6-[4-(2,5-dihydro-1H-pyrrol-1-yl)phenyl]-5-ethyl-2-oxo-1,2-dihydropyridine-3-carboxylic acid] | 12.5 to 150 (≈ 40.3 to 483 µM) | < 1 | < 1 |  | 12.5 to 150 (≈ 40.3 to 483 µM) |  | 12.5 to 150 (≈ 40.3 to 483 µM) | < 1 |  | 3.5 to 12.5 (≈ 11.3 to 40.3 µM) |  |
